target: human wild type-CFTR (Homo sapiens, UniProt P13569); assay: Cell-based YFP assay; design: expressed in transfected cells; host or cells: CHO-K1 (Chinese hamster ovary); settings: CHO-K1 cells expressing human wild type-CFTR and YFP-H148Q/I152L; forskolin 20 μM = 100% activity; read-out: Cell-based YFP Assay (EC50) Concentration Range
Procedure, shortened: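 I⁻-driven YFP fluorescence quenching at 37 °C: 2 s baseline, addition of 140 mM iodide solution, then 14 s of readings at 0.4 s intervals. Cells were CHO-K1 expressing human wild-type CFTR plus YFP-H148Q/I152L. EC50 derived from averaged triplicates.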

Chain of human wild type-CFTR (P13569 whole entry): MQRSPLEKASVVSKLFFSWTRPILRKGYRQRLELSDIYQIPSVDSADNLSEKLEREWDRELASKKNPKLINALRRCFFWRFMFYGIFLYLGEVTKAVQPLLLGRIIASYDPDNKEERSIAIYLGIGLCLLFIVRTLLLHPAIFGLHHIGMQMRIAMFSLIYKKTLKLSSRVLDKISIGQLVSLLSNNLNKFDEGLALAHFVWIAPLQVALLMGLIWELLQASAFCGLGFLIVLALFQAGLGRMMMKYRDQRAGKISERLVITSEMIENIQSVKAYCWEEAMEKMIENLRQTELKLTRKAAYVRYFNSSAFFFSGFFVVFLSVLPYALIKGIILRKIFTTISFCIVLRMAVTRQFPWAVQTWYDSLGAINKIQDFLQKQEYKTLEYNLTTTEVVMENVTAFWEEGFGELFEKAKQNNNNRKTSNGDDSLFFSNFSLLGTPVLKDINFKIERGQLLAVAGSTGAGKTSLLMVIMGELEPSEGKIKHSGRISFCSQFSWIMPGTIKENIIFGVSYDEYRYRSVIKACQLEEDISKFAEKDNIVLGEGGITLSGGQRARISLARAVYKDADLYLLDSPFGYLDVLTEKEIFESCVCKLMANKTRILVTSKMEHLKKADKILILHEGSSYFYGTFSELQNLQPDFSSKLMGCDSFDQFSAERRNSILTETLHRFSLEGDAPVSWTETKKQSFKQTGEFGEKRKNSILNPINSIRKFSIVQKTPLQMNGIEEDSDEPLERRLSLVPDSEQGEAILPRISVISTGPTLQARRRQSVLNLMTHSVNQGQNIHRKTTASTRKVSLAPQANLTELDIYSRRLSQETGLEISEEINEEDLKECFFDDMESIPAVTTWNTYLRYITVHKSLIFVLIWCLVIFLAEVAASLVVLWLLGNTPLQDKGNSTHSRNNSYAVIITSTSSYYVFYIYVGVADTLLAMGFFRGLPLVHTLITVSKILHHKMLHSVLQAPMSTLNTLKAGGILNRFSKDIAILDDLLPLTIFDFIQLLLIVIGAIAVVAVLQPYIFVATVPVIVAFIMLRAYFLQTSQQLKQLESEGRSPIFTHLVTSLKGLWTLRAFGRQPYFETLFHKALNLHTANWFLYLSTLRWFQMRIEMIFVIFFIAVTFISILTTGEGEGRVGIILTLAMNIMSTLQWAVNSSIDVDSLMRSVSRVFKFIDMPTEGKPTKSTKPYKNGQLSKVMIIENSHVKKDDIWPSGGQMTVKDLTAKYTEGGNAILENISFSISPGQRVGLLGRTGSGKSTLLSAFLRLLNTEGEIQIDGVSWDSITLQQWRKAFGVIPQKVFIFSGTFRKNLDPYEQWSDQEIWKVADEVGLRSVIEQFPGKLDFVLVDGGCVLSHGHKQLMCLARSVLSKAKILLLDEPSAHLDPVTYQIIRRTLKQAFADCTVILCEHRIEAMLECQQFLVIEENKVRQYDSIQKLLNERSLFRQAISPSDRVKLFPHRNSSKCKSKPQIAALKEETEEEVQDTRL

EC50 | SMILES
≥ 2000 nM | COc1ccc(-c2ccnc3cc(C(=O)Nc4ccc(C(=O)NCCN(C)C)cc4)nn23)cc1OC [Compound 118, 7-(3,4-dimethoxyphenyl)-N-(4-((2-(dimethylamino)ethyl)carbamoyl)phenyl) pyrazolo[1,5-a]pyrimidine-2-carboxamide]
< 200 nM | COc1ccc(-c2ccnc3cc(C(=O)Nc4ccc5c(ccn5C)c4)nn23)cc1OC [Compound 309, 7-(3,4-dimethoxyphenyl)-N-(1-methyl-1H-indol-5-yl)pyrazolo [1,5-a]pyrimidine-2-carboxamide]
< 200 nM | COc1ccc(-c2ccnc3cc(C(=O)Nc4ccc(CO)cc4)nn23)cc1OC [Compound 292, 7-(3,4-dimethoxyphenyl)-N-(4-(hydroxymethyl)phenyl) pyrazolo[1,5-a]pyrimidine-2-carboxamide]
≥ 2000 nM | COC(=O)c1ccc(NC(=O)c2cc3nccc(-c4ccc(OC)c(OC)c4)n3n2)c(Cl)c1 [Compound 104, methyl 3-chloro-4-(7-(3,4-dimethoxyphenyl)pyrazolo [1,5-a]pyrimidine-2-carboxamido)benzoate]
≥ 2000 nM | COc1ccc(-c2ccnc3cc(C(=O)Nc4ccc(C(=O)N[C@@H](CCSC)C(=O)O)cc4)nn23)cc1OC [Compound 87, (4-(7-(3,4-dimethoxyphenyl)pyrazolo[1,5-a]pyrimidine-2-carboxamido)benzoyl)-L-methionine]
≥ 2000 nM | COc1ccc(-c2ccnc3cc(C(=O)Nc4ccc(C(=O)NCCCN5CCCC5)cc4)nn23)cc1OC [Compound 224, 7-(3,4-dimethoxyphenyl)-N-(4-((3-(pyrrolidin-1-yl)propyl)carbamoyl)phenyl)pyrazolo[1,5-a]pyrimidine-2-carboxamide]
≥ 2000 nM | COc1ccc(-c2ccnc3cc(C(=O)Nc4ccc(OCC(=O)O)cc4)nn23)cc1OC [Compound 35, 2-(4-(7-(3,4-dimethoxyphenyl)pyrazolo[1,5-a]pyrimidine-2-carboxamido)phenoxy)acetic acid]
≥ 2000 nM | COc1ccc(-c2ccnc3cc(C(=O)Nc4ccc(C(=O)O)c(F)c4)nn23)cc1OC [Compound 278, 4-(7-(3,4-dimethoxyphenyl)pyrazolo[1,5-a]pyrimidine-2-carboxamido)-2-fluorobenzoic acid]
≥ 2000 nM | COc1ccc(-c2ccnc3cc(NC(=O)Nc4ccc(C(=O)O)cc4)nn23)cc1OC [Compound 107, 4-(3-(7-(3,4-dimethoxyphenyl)pyrazolo[1,5-a]pyrimidin-2-yl)ureido)benzoic acid]
≥ 2000 nM | COc1ccc(-c2ccnc3cc(C(=O)Nc4ccc(C(=O)N5CCC[C@H]5C(=O)O)cc4)nn23)cc1OC [Compound 50, (4-(7-(3,4-dimethoxyphenyl)pyrazolo[1,5-a]pyrimidine-2-carboxamido)benzoyl)-L-proline]
≥ 2000 nM | COc1ccc(-c2ccnc3cc(C(=O)Nc4ccc(C(=O)O)c(OC)c4)nn23)cc1OC [Compound 216, 4-(7-(3,4-dimethoxyphenyl)pyrazolo[1,5-a]pyrimidine-2-carboxamido)-2-methoxybenzoic acid]

Second part, the compound before the results:

SMILES | EC50
COc1ccc(-c2ccnc3cc(C(=O)Nc4cccc(C(=O)N5CCNCC5)c4)nn23)cc1OC [Compound 80, 7-(3,4-dimethoxyphenyl)-N-(3-(piperazine-1-carbonyl)phenyl)pyrazolo [1,5-a]pyrimidine-2-carboxamide] | ≥ 2000 nM
CCOc1ccc(NC(=O)c2cc3nccc(-c4ccc(N(C)C)cc4)n3n2)cc1 [Compound 324, 7-(4-(dimethylamino)phenyl)-N-(4-ethoxyphenyl)pyrazolo [1,5-a]pyrimidine-2-carboxamide] | ≥ 2000 nM
CCOC(=O)CNC(=O)c1cc2nccc(-c3ccc(OC)c(OC)c3)n2n1 [Compound 20, ethyl (7-(3,4-dimethoxyphenyl)pyrazolo [1,5-a]pyrimidine-2-carbonyl) glycinate] | 200 to 2000 nM
COc1ccc(-c2ccnc3cc(C(=O)N4CCN(c5ncccn5)CC4)nn23)cc1OC [Compound 185, (7-(3,4-dimethoxyphenyl)pyrazolo[1,5-a]pyrimidin-2-yl)(4-(pyrimidin-2-yl)piperazin-1-yl)methanone] | 200 to 2000 nM
COc1ccc(-c2ccnc3cc(C(=O)N4CCN(C(=O)c5ncccn5)[C@@H](C)C4)nn23)cc1OC [Compound 383, (S)-(7-(3,4-dimethoxy-phenyl)pyrazolo[1,5-a]pyrimidin-2-yl)(3-methyl-4-(pyrimidine-2-carbonyl)piperazin-1-yl)methanone] | 200 to 2000 nM
COc1ccc(-c2ccnc3cc(C(=O)N4CCN(C(=O)c5ccccc5OC)[C@@H](C)C4)nn23)cc1OC [Compound 317, (S)-(7-(3,4-dimethoxyphenyl)pyrazolo[1,5-a]pyrimidin-2-yl)(4-(2-methoxybenzoyl)-3-methylpiperazin-1-yl) methanone] | 200 to 2000 nM
COc1ccc(-c2ccnc3cc(C(=O)N4CCc5ccc(C(=O)O)cc54)nn23)cc1OC [Compound 232, 1-(7-(3,4-dimethoxyphenyl)pyrazolo[1,5-a]pyrimidine-2-carbonyl) indoline-6-carboxylic acid] | ≥ 2000 nM
COc1ccc(-c2ccnc3cc(C(=O)Nc4ccc(C(=O)N5CCOCC5)nc4)nn23)cc1OC [Compound 264, 7-(3,4-dimethoxyphenyl)-N-(6-(morpholine-4-carbonyl)pyridin-3-yl) pyrazolo[1,5-a]pyrimidine-2-carboxamide] | ≥ 2000 nM
CCC[C@H]1CN(C(=O)c2cc3nccc(-c4ccc(OC)c(OC)c4)n3n2)CCN1C(=O)c1ccccc1 [Compound 377, (S)-(4-benzoyl-3-propylpiperazin-1-yl) (7-(3,4-dimethoxyphenyl)pyrazolo [1,5-a]pyrimidin-2-yl)methanone] | < 200 nM
COc1ccc(-c2ccnc3cc(C(=O)Nc4ccc(N5CCOCC5)cn4)nn23)cc1[N+](=O)[O-] [Compound 294, 7-(4-methoxy-3-nitrophenyl)-N-(5-morpholinopyridin-2-yl) pyrazolo[1,5-a] pyrimidine-2-carboxamide] | ≥ 2000 nM
COc1ccc(-c2ccnc3cc(C(=O)NN4CCOCC4)nn23)cc1OC [Compound 99, 7-(3,4-dimethoxyphenyl)-N-morpholinopyrazolo[1,5-a] pyrimidine-2-carboxamide] | ≥ 2000 nM
COc1ccc(-c2ccnc3cc(C(=O)Nc4ccc(N5CCOCC5)cn4)nn23)c(F)c1 [Compound 297, 7-(2-fluoro-4-methoxyphenyl)-N-(5-morpholinopyridin-2-yl) pyrazolo[1,5-a]pyrimidine-2-carboxamide] | ≥ 2000 nM
COc1ccc(-c2ccnc3cc(C(=O)N[C@H]4CC[C@H](C(=O)N5CCN(c6ccccn6)CC5)CC4)nn23)cc1OC [Compound 342, 7-(3,4-dimethoxphenyl)-N-((1R,4R)-4-(4-(pyridin-2-yl)piperazine-1-carbonyl)cyclohexyl) pyrazolo[1,5-a] pyrimidine-2-carboxamide] | 200 to 2000 nM
COc1ccc(-c2ccnc3cc(C(=O)N4CCN(C(=O)Nc5ccccc5)[C@@H](C)C4)nn23)cc1OC [Compound 354, (S)-4-(7-(3,4-dimethoxy-phenyl)pyrazolo[1,5-a]pyrimidine-2-carbonyl)-2-methyl-N-phenylpiperazine-1-carboxamide] | < 200 nM
COc1ccc(-c2ccnc3cc(C(=O)N4C[C@H](C)N(C(=O)c5ccccc5)C[C@H]4C)nn23)cc1OC [Compound 365, ((2R,5S)-4-benzoyl-2,5-dimethylpiperazin-1-yl)(7-(3,4-dimethoxyphenyl)pyrazolo[1,5-a]pyrimidin-2-yl)methanone] | < 200 nM
CCOc1ccc(NC(=O)c2cc3nccc(-c4ccc(OC)cc4F)n3n2)cc1 [Compound 296, N-(4-ethoxyphenyl)-7-(2-fluoro-4-methoxyphenyl)pyrazolo [1,5-a]pyrimidine-2-carboxamide] | ≥ 2000 nM
CCOc1ccc(NC(=O)c2cc3nccc(-c4ccc5c(c4)CCO5)n3n2)cc1 [Compound 313, 7-(2,3-dihydrobenzofuran-5-yl)-N-(4-ethoxyphenyl)pyrazolo [1,5-a]pyrimidine-2-carboxamide] | ≥ 2000 nM
COc1ccc(-c2ccnc3cc(C(=O)N4CCN[C@@H](C(C)C)C4)nn23)cc1OC [Compound 372, (S)-(7-(3,4-dimethoxyphenyl)pyrazolo[1,5-a]pyrimidin-2-yl)(3-isopropylpiperazin-1-yl)methanone] | 200 to 2000 nM
COc1ccc(-c2ccnc3cc(C(=O)O)nn23)cc1OC [Compound 5, 7-(3,4-dimethoxyphenyl)pyrazolo[1,5-a]pyrimidine-2-carboxylic acid] | ≥ 2000 nM
COc1ccc(-c2ccnc3cc(C(=O)N4CCN[C@H](C)C4)nn23)cc1OC [Compound 322, (R)-(7-(3,4-dimethoxyphenyl)pyrazolo[1,5-a]pyrimidin-2-yl)(3-methylpiperazin-1-yl)methanone] | ≥ 2000 nM
CCN1CCN(c2ccc(NC(=O)c3cc4nccc(-c5ccc(OC)c(OC)c5)n4n3)cc2)CC1 [Compound 270, 7-(3,4-dimethoxyphenyl)-N-(4-(4-ethylpiperazin-1-yl)phenyl)pyrazolo[1,5-a]pyrimidine-2-carboxamide] | < 200 nM
COc1ccc(-c2ccnc3cc(C(=O)Nc4ccc(C(=O)N5CCN(C)CC5)c(C)c4)nn23)cc1OC [Compound 215, 7-(3,4-dimethoxyphenyl)-N-(3-methyl-4-(4-methylpiperazine-1-carbonyl)phenyl)pyrazolo [1,5-a]pyrimidine-2-carboxamide] | ≥ 2000 nM
COc1ccc(-c2ccnc3cc(C(=O)Nc4ccc(C(=O)OCCN5CCOCC5)cn4)nn23)cc1OC [Compound 242, 2-morpholinoethyl 6-(7-(3,4-dimethoxyphenyl)pyrazolo [1,5-a]pyrimidine-2-carboxamido)nicotinate] | < 200 nM
CCOc1ccc(NC(=O)c2cc3nccc(-c4ccc(F)c(OC)c4)n3n2)cc1 [Compound 307, N-(4-ethoxyphenyl)-7-(4-fluoro-3-methoxyphenyl)pyrazolo [1,5-a]pyrimidine-2-carboxamide] | 200 to 2000 nM

Reference: patent publication US20240199623A1 (ILDONG PHARMACEUTICAL CO., LTD., priority 2020, published 2024)
